Experimental data published in patent publication US20240043427A1 (Gilead Sciences, Inc., priority 2020, published 2024).

Experiments:
CD73 [1] = molecular target: T1, CD73 (Homo sapiens (Human), UniProt P21589); assay: MDA-MB-231 Cell Based CD73 Activity Assay (DMEM); settings: MDA-MB-231-GFP cells, DMEM medium with 10% human plasma, 200 uM AMP
CD73 [2] = molecular target: T1, CD73; format: biochemical; settings: 1 mM NaH2PO4 in enzyme buffer, CD73 0.3 nM, AMP 15 uM

T1 sequence (P21589 27-574): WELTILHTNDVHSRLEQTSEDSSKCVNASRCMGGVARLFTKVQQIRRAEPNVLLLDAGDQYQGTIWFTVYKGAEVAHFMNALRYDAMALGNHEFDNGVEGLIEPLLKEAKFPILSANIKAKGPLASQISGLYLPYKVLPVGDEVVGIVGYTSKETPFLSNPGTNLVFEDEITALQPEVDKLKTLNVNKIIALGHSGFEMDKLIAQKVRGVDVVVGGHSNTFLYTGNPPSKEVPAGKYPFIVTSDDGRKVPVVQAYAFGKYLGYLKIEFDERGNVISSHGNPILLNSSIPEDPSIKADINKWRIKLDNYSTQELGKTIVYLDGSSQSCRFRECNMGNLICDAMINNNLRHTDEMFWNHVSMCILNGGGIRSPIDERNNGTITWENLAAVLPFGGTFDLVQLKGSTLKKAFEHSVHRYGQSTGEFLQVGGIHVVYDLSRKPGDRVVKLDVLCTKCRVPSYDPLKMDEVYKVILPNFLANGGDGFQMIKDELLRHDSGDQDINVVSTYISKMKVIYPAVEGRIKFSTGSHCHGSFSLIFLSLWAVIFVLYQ

Row | EC50 (CD73 [1]) [nM] | IC50 (CD73 [2]) [nM] | Structure (SMILES)
1 | 0.39 | 2.06 | O=c1[nH]cc(-c2cc([C@H]3C[C@@H]3c3cc4c(cn3)c(C(F)(F)F)nn4CC(F)(F)F)c3nccn3n2)c(=O)[nH]1 [Example 637, 5-(8-((1S,2S)-2-(1-(2,2,2-trifluoroethyl)-3-(trifluoromethyl)-1H-pyrazolo[4,3-c]pyridin-6-yl)cyclopropyl)imidazo[1,2-b]pyridazin-6-yl)pyrimidine-2,4(1H,3H)-dione]
2 | 0.58 | 2.42 | O=c1[nH]cc(-c2cc([C@H]3C[C@@H]3c3ccc4nc5n(c4c3)[C@H](C(F)(F)F)CC5)c3nccn3n2)c(=O)[nH]1 [Example 639, 5-(8-((1S,2S)-2-((S)-1-(trifluoromethyl)-2,3-dihydro-1H-benzo[d]pyrrolo[1,2-a]imidazol-7-yl)cyclopropyl)imidazo[1,2-b]pyridazin-6-yl)pyrimidine-2,4(1H,3H)-dione]
3 | 0.12 | 1.6 | O=c1[nH]cc(-c2cc([C@H]3C[C@@H]3c3ccc4nc5n(c4c3)[C@@H](C(F)(F)F)CC5)c3nccn3n2)c(=O)[nH]1 [Example 640, 5-(8-((1S,2S)-2-((R)-1-(trifluoromethyl)-2,3-dihydro-1H-benzo[d]pyrrolo[1,2-a]imidazol-7-yl)cyclopropyl)imidazo[1,2-b]pyridazin-6-yl)pyrimidine-2,4(1H,3H)-dione]
4 | 207 | 77.5 | O=c1[nH]cc(-c2cc(N3CC4CC3C4)c3nccn3n2)c(=O)[nH]1 [Example 641, 5-(8-(2-azabicyclo[2.1.1]hexan-2-yl)imidazo[1,2-b]pyridazin-6-yl)pyrimidine-2,4(1H,3H)-dione]
5 | 98.9 | 36.4 | O=c1[nH]cc(-c2cc(N3CC4CCC3C4)c3nccn3n2)c(=O)[nH]1 (stereo not drawn) [Example 643, 5-(8-(2-azabicyclo[2.2.1]heptan-2-yl)imidazo[1,2-b]pyridazin-6-yl)pyrimidine-2,4(1H,3H)-dione]
6 | 79.6 | 49 | O=c1[nH]cc(-c2cc(N3CC4CC4(C(F)(F)F)C3)c3nccn3n2)c(=O)[nH]1 (stereo not drawn) [Example 645, 5-(8-(1-(trifluoromethyl)-3-azabicyclo[3.1.0]hexan-3-yl)imidazo[1,2-b]pyridazin-6-yl)pyrimidine-2,4(1H,3H)-dione]
7 | 234 | 129 | O=c1[nH]cc(-c2cc(N3CC4CCC3CC4)c3nccn3n2)c(=O)[nH]1 [Example 647, 5-(8-(2-azabicyclo[2.2.2]octan-2-yl)imidazo[1,2-b]pyridazin-6-yl)pyrimidine-2,4(1H,3H)-dione]
8 | 21.7 | 11.7 | CC1(C#N)CCN(c2cc(-c3c[nH]c(=O)[nH]c3=O)nn3ccnc23)C1 (stereo not drawn) [Example 649, 1-(6-(2,4-dioxo-1,2,3,4-tetrahydropyrimidin-5-yl)imidazo[1,2-b]pyridazin-8-yl)-3-methylpyrrolidine-3-carbonitrile]
9 | 480 | 129 | O=c1[nH]cc(-c2cc(N3CCC4CCC3C4)c3nccn3n2)c(=O)[nH]1 (stereo not drawn) [Example 651, 5-(8-(2-azabicyclo[3.2.1]octan-2-yl)imidazo[1,2-b]pyridazin-6-yl)pyrimidine-2,4(1H,3H)-dione]

Row | Structure (SMILES) | EC50 (CD73 [1]) [nM] | IC50 (CD73 [2]) [nM]
10 | O=c1[nH]cc(-c2cc(N3C4CCC3CC4)c3nccn3n2)c(=O)[nH]1 [Example 646, 5-(8-(7-azabicyclo[2.2.1]heptan-7-yl)imidazo[1,2-b]pyridazin-6-yl)pyrimidine-2,4(1H,3H)-dione] | 338 | > 250
11 | O=c1[nH]cc(-c2cc(N3C4CCCC3CC4)c3nccn3n2)c(=O)[nH]1 [Example 648, 5-(8-(8-azabicyclo[3.2.1]octan-8-yl)imidazo[1,2-b]pyridazin-6-yl)pyrimidine-2,4(1H,3H)-dione] | 1950 | > 250
12 | O=c1[nH]cc(-c2cc(N3CC4CC(C4)C3)c3nccn3n2)c(=O)[nH]1 [Example 650, 5-(8-(3-azabicyclo[3.1.1]heptan-3-yl)imidazo[1,2-b]pyridazin-6-yl)pyrimidine-2,4(1H,3H)-dione] | 18.8 | 6.86
